Assays:
LOLMU [1] = experiment: greenhouse test, post-emergence treatment; type: in vivo, Lolium multiflorum; conditions: Use Example 17
Description: (§1) The culture containers used were plastic pots containing loamy sand with approximately 3.0% of humus as substrate. The seeds of the test plants were sown separately for each species.
(§2) For the post-emergence treatment, the test plants were grown to a plant height of from 3 to 15 cm, depending on the plant habit, and only then treated with the active compounds which had been suspended or emulsified in water. To this end, the test plants were either sown directly and grown in the same containers, or they were first grown separately as seedlings and transplanted into the test containers a few days prior to treatment.
(§3) Depending on the species, the plants were kept at 10-25° C. and 20-35° C., respectively. The test period extended over 2 to 4 weeks. During this time, the plants were tended and their response to the individual treatments was evaluated.
(§4) Evaluation was carried out using a scale from 0 to 100. 100 means no emergence of the plants, or complete destruction of at least the above-ground parts, and 0 means no damage or normal course of growth. Good herbicidal activity is given at values of at least 70, and very good herbicidal activity is given at values of at least 85.
(§5) The respective stated components A and B, and if appropriate, C were formulated as a 5% by weight or 10% by weight strength emulsion concentrate or a commercially available formulation of component B was used and, with addition of the amount of solvent system, introduced into the spray liquor used for applying the active compound. In the examples, the solvent used was water.
(§6) The test period extended over 20 or 21 days. During this time, the plants were tended, and their reactions to the treatment with active compound was monitored.
(§7) What was evaluated was the damage by the chemical compositions using a scale of from 0 to 100%, in comparison to the untreated control plants. 0 means no damage, and 100 means complete destruction of the plants.
(§8) In the examples below, using the method of S. R. Colby (1967) “Calculating synergistic and antagonistic responses of herbicide combinations”, Weeds 15, p. 22 ff., the value E, which is expected if the activity of the individual active compounds is only additive, was calculated.
(§9) where X=percent activity using active compound A at an application rate a; Y=percent activity using active compound B at an application rate b; E=expected activity (in %) by A+B at application rates a+b.
(§10) If the value found in experiments is higher than the value E calculated according to Colby, a synergistic effect is present.

ALOMY [2] = experiment: greenhouse test, post-emergence treatment; type: in vivo, Alopecurus myosuroides; conditions: Use Example 17
Description: as §1, §2, §3, §4, §5, §6, §7, §8, §9, §10

SETVI [3] = experiment: greenhouse test, post-emergence treatment; type: in vivo, Setaria viridis; conditions: Use Example 17
Description: as §1, §2, §3, §4, §5, §6, §7, §8, §9, §10

LOLMU [4] = experiment: greenhouse test, pre-emergence treatment; type: in vivo, Lolium multiflorum
From the text: as §1
(§11) For the pre-emergence treatment, the active compounds, suspended or emulsified in water, were applied directly after sowing by means of finely distributing nozzles. The containers were irrigated gently to promote germination and growth and subsequently covered with transparent plastic hoods until the plants had rooted. This cover caused uniform germination of the test plants unless this was adversely affected by the active compounds.
as §3, §4, §5, §6, §7, §8, §9, §10

ALOMY [5] = experiment: greenhouse test, pre-emergence treatment; type: in vivo, Alopecurus myosuroides
From the text: as §1, §11, §3, §4, §5, §6, §7, §8, §9, §10

POAAN = experiment: greenhouse test, pre-emergence treatment; type: in vivo, Poa annua; conditions: 25 g/ha a.s., Use Example 7
From the text: as §1, §11, §3, §4, §5, §6, §7, §8, §9, §10

PHACA = experiment: greenhouse test, pre-emergence treatment; type: in vivo, Phalaris canariensis; conditions: Use Example 20
From the text: as §1, §11, §3, §4, §5, §6, §7, §8, §9, §10

APESV = experiment: greenhouse test, pre-emergence treatment; type: in vivo, Apera spica-venti
From the text: as §1, §11, §3, §4, §5, §6, §7, §8, §9, §10

LAMPU = experiment: greenhouse test, pre-emergence treatment; type: in vivo, Lamium purpureum
From the text: as §1, §11, §3, §4, §5, §6, §7, §8, §9, §10

SETVI [6] = experiment: greenhouse test, pre-emergence treatment; type: in vivo, Setaria viridis; conditions: 25 g/ha a.s., Use Example 11
From the text: as §1, §11
Depending on the species, the plants were kept at 10-25° C. and 20-35° C., respectively. […] During this time, the plants were tended and their response to the individual treatments was evaluated. […]
as §6
What was evaluated was the damage by the chemical compositions using a scale of from 0 to 100%, in comparison to the untreated control plants. […]
In the examples below, using the method of S. R. Colby (1967) “Calculating synergistic and antagonistic responses of herbicide combinations”, Weeds 15, p. 22 ff., the value E, which is expected if the activity of the individual active compounds is only additive, was calculated. […]

SOLNI = experiment: greenhouse test, pre-emergence treatment; type: in vivo, Solanum nigrum L.
From the text: as §1, §11, §3, §4, §5, §6, §7, §8, §9, §10

BRAPL = experiment: greenhouse test, pre-emergence treatment; type: in vivo, Brachiaria plantaginea
From the text: as §1, §11, §3, §4, §5, §6, §7, §8, §9, §10

SETFA = experiment: greenhouse test, pre-emergence treatment; type: in vivo, Setaria faberi
From the text: as §1, §11, §3, §4, §5, §6, §7, §8, §9, §10

DIGSA = experiment: greenhouse test, pre-emergence treatment; type: in vivo, Digitaria sanguinalis
From the text: as §1, §11, §3, §4, §5, §6, §7, §8, §9, §10

ECHCG = experiment: greenhouse test, pre-emergence treatment; type: in vivo, Echinochloa crus-galli
From the text: as §1, §11, §3, §4, §5, §6, §7, §8, §9, §10

CCC(CC)Nc1c([N+](=O)[O-])cc(C)c(C)c1[N+](=O)[O-] [Pendimethalin, reference compound]
Herbicidal action in % after 20 days against LOLMU (LOLMU [1]; 500 g/ha a.s.): 70%
Herbicidal action in % after 20 days against LOLMU (LOLMU [1]; 1000 g/ha a.s.): 75%
Herbicidal action in % after 20 days against ALOMY (ALOMY [2]; 500 g/ha a.s.): 65%
Herbicidal action in % after 20 days against ALOMY (ALOMY [2]; 1000 g/ha a.s.): 75%
Herbicidal action in % after 20 days against SETVI (SETVI [3]; 500 g/ha a.s.): 90%
Herbicidal action in % after 20 days against SETVI (SETVI [3]; 1000 g/ha a.s.): 95%
Herbicidal action in % after 20 days against LOLMU (LOLMU [4]; 250 g/ha a.s., Use Example 10): 0%
Herbicidal action in % after 20 days against ALOMY (ALOMY [5]; 250 g/ha a.s., Use Example 10): 30%

O=C(Nc1ccc(F)cc1)c1cccc(Oc2cccc(C(F)(F)F)c2)n1 [Picolinafen, reference compound]
Herbicidal action in % after 20 days against POAAN (POAAN): 0%
Herbicidal action in % after 20 days against PHACA (PHACA; 25 g/ha a.s.): 0%
Herbicidal action in % after 20 days against ALOMY (ALOMY [5]; 25 g/ha a.s., Use Example 7): 0%
Herbicidal action in % after 20 days against APESV (APESV; 25 g/ha a.s., Use Example 20): 60%
Herbicidal action in % after 20 days against LAMPU (LAMPU; 25 g/ha a.s., Use Example 20): 0%

Cn1nc(C(F)(F)F)c(CS(=O)(=O)C2=NOC(C)(C)C2)c1OC(F)F [Pyroxasulfone]
Herbicidal action in % after 21 days against SETVI (SETVI [6]): 100%
Herbicidal action in % after 20 days against SOLNI (SOLNI; 6.25 g/ha a.s., Use Example 22): 40%
Herbicidal action in % after 20 days against SOLNI (SOLNI; 13 g/ha a.s., Use Example 22): 85%
Herbicidal action in % after 20 days against BRAPL (BRAPL; 12.5 g/ha a.s., Use Example 12): 40%
Herbicidal action in % after 20 days against BRAPL (BRAPL; 25 g/ha a.s., Use Example 12): 75%
Herbicidal action in % after 20 days against SETFA (SETFA; 6.25 g/ha a.s., Use Example 22): 75%
Herbicidal action in % after 20 days against SETFA (SETFA; 12.5 g/ha a.s., Use Example 12): 75%
Herbicidal action in % after 20 days against SETFA (SETFA; 13 g/ha a.s., Use Example 22): 98%
Herbicidal action in % after 20 days against SETFA (SETFA; 25 g/ha a.s., Use Example 12): 98%
Herbicidal action in % after 21 days against LOLMU (LOLMU [4]; 25 g/ha a.s., Use Example 11): 90%
Herbicidal action in % after 20 days against DIGSA (DIGSA; 6.25 g/ha a.s., Use Example 22): 70%
Herbicidal action in % after 20 days against DIGSA (DIGSA; 13 g/ha a.s., Use Example 22): 95%
Herbicidal action in % after 21 days against LAMPU (LAMPU; 25 g/ha a.s., Use Example 11): 55%
Herbicidal action in % after 20 days against ECHCG (ECHCG; 6.25 g/ha a.s., Use Example 22): 55%
Herbicidal action in % after 20 days against ECHCG (ECHCG; 13 g/ha a.s., Use Example 22): 85%

CN1C(=O)C(Cc2ccccc2)N(C)C(=O)C1=Cc1ccccc1C#N (racemic) [Compound I-1 (Z) (Racemate), 2-[5-benzyl-1,4-dimethyl-3,6-dioxopiperazin-2-ylidenemethyl]benzonitrile]
Herbicidal action in % after 20 days against PHACA (PHACA; 125 g/ha a.s.): 65%
Herbicidal action in % after 20 days against PHACA (PHACA; 250 g/ha a.s.): 90%
Herbicidal action in % after 20 days against SOLNI (SOLNI; 125 g/ha a.s., Use Example 22): 40%
Herbicidal action in % after 20 days against SOLNI (SOLNI; 125 g/ha a.s., Use Example 23): 40%
Herbicidal action in % after 20 days against SOLNI (SOLNI; 250 g/ha a.s., Use Example 19): 65%
Herbicidal action in % after 20 days against SOLNI (SOLNI; 250 g/ha a.s., Use Example 22): 65%
Herbicidal action in % after 20 days against SOLNI (SOLNI; 250 g/ha a.s., Use Example 23): 65%
Herbicidal action in % after 20 days against BRAPL (BRAPL; 125 g/ha a.s., Use Example 23): 40%
Herbicidal action in % after 20 days against BRAPL (BRAPL; 250 g/ha a.s., Use Example 19): 75%
Herbicidal action in % after 20 days against BRAPL (BRAPL; 250 g/ha a.s., Use Example 23): 75%
Herbicidal action in % after 20 days against SETFA (SETFA; 125 g/ha a.s., Use Example 22): 75%
Herbicidal action in % after 20 days against SETFA (SETFA; 250 g/ha a.s., Use Example 19): 85%
Herbicidal action in % after 20 days against SETFA (SETFA; 250 g/ha a.s., Use Example 22): 85%
Herbicidal action in % after 20 days against LOLMU (LOLMU [4]; 63 g/ha a.s., Use Example 21): 30%
Herbicidal action in % after 20 days against LOLMU (LOLMU [4]; 125 g/ha a.s., Use Example 21): 50%
Herbicidal action in % after 20 days against DIGSA (DIGSA; 125 g/ha a.s., Use Example 22): 40%
Herbicidal action in % after 20 days against DIGSA (DIGSA; 125 g/ha a.s., Use Example 23): 40%
Herbicidal action in % after 20 days against DIGSA (DIGSA; 250 g/ha a.s., Use Example 19): 65%
Herbicidal action in % after 20 days against DIGSA (DIGSA; 250 g/ha a.s., Use Example 22): 65%
Herbicidal action in % after 20 days against DIGSA (DIGSA; 250 g/ha a.s., Use Example 23): 65%
Herbicidal action in % after 20 days against ALOMY (ALOMY [5]; 63 g/ha a.s., Use Example 21): 30%
Herbicidal action in % after 20 days against ALOMY (ALOMY [5]; 125 g/ha a.s., Use Example 21): 75%
Herbicidal action in % after 20 days against APESV (APESV; 63 g/ha a.s., Use Example 21): 80%
Herbicidal action in % after 20 days against APESV (APESV; 125 g/ha a.s., Use Example 20): 90%
Herbicidal action in % after 20 days against APESV (APESV; 125 g/ha a.s., Use Example 21): 90%
Herbicidal action in % after 20 days against APESV (APESV; 250 g/ha a.s., Use Example 20): 95%
Herbicidal action in % after 20 days against LAMPU (LAMPU; 63 g/ha a.s., Use Example 21): 0%
Herbicidal action in % after 20 days against LAMPU (LAMPU; 125 g/ha a.s., Use Example 20): 30%
Herbicidal action in % after 20 days against LAMPU (LAMPU; 125 g/ha a.s., Use Example 21): 30%
Herbicidal action in % after 20 days against LAMPU (LAMPU; 250 g/ha a.s., Use Example 20): 80%
Herbicidal action in % after 20 days against ECHCG (ECHCG; 125 g/ha a.s., Use Example 22): 20%
Herbicidal action in % after 20 days against ECHCG (ECHCG; 125 g/ha a.s., Use Example 23): 20%
Herbicidal action in % after 20 days against ECHCG (ECHCG; 250 g/ha a.s., Use Example 22): 70%
Herbicidal action in % after 20 days against ECHCG (ECHCG; 250 g/ha a.s., Use Example 23): 70%

From patent publication US20100190794A1, “Herbicidally Active Composition” (BASF SE, priority 2007, published 2010)
